Key:
[1] = biological target: T1, CDK1:Cyclin-B (Homo sapiens, UniProt P06493); experiment: CDK1 Screening Assay; format: biochemical
T1 construct: purchased New England Biolabs 6020; host or cells: insect cells
Experimental: A kinase reaction mixture was prepared containing 50 mM Tris-HCl pH=8, 10 mM MgCl2, 0.1 mM Na3PO4, 1 mM DTT, 10 μM ATP, 0.025 μM biotinylated histone-H1 peptide substrate (also referred to herein as a CDK-1 peptide substrate, see substrate table) and 0.2 μCuries per well ^33P-γ-ATP (2000–3000 Ci/mmol). 70 μL of the kinase reaction mixture was dispensed into the well of a streptavidin coated FlashPlate™ (Cat. # SMP 103, NEN, Boston, Mass.). Then 1 μL of test compound stock in 100% DMSO was added to the wells resulting in a final concentration of 1% DMSO in the reaction with a 100 μl final reaction volume. Next, CDK1:Cyclin-B protein (New England Biolads, infra) was diluted in 50 mM Tris-HCl pH=8.0, 0.1% BSA at a concentration of 1 ng per μL and 30 μl (30 ng enzyme per test well) was added to each well to initiate the reaction. The reaction was incubated for one hour at 30° C. At the end of the 1-hour incubation, the reaction was terminated by aspirating the reaction mixture from the plate and washing the wells twice with PBS containing 100 mM EDTA. The histone-H1 biotinylated peptide substrate became immobilized on the Flashplate™ (Perkin Elmer, NEN Boston, Mass.) and the incorporation of ^33P-γ-ATP was measured by reading the plate on a scintillation counter. Inhibition of the enzymatic activity of CDK1 was measured by observing a reduced amount of ^33P-γ-ATP incorporated into the immobilized peptide.
(§1) Assays to test compound inhibition of other kinases were preformed using methods that measure the amount of phosphorylation of a biotinylated peptide substrate. Biotinylated peptide substrates were selected from the literature as appropriate for the enzyme being evaluated. The general procedure used to assay for kinase activity is as follows: a kinase reaction mix was prepared in 50 mM Tris-HCl pH=8, 10 mM MgCl2, 0.1 mM Na3VO4, 1 mM DTT, 10 μM ATP, 0.25–1 μM biotinylated peptide substrate, 0.2–0.8 μCuries per well ^33P-γ-ATP (2000–3000 Ci/mmol). Assay conditions vary slightly for each protein kinase, for example, insulin receptor kinase requires 10 mM MnCl2 for activity and Calmodulin-dependent protein kinase requires calmodulin and 2 mM CaCl2. The reaction mixture was dispensed into the wells of a streptavidin coated Flashplate and 1 μL test compound in 100% DMSO was added to a 100 μL reaction volume resulting in a final concentration of 1% DMSO in the reaction. Enzyme was diluted in 50 mM Tris-HCl pH=8.0, 0.1% BSA and added to each well. The reaction was incubated for one hour at 30° C. in the presence of a test compound. After one hour the reaction mix was aspirated from the plate and the plate was washed with PBS containing 100 mM EDTA. The plate was read on a scintillation counter to determine ^33P-γ-ATP incorporated into the immobilized peptide substrate. Test compounds were assayed in duplicate at 8 concentrations (100 μM, 10 μM, 1 μM, 100 nM, 10 nM, 1 nM, 100 pM, 10 pM). A maximum and minimum signal for the assay was determined on each plate. […] Known inhibitor compounds appropriate for the kinase being assayed were also included on each plate.
(§2) The form of VEGF-R (vascular endothelial growth factor receptor-2) used was a fusion protein containing a polyhistidine tag at the N-terminus followed by amino acids 786–1343 of the rat VEGF-R2 kinase domain (GenBank Accession #U93306). The form of CDK1 (cyclin dependent kinase 1) used was isolated from insect cells expressing both the human CDK1 catalytic subunit and its positive regulatory subunit cyclin B (CDK1:cyclin B protein, New England Biolabs, Beverly, Mass., Cat. #6020). The form of CDK4 (cyclin dependent kinase 4) used contains amino acids 769 to 921 of the mouse […] protein found in the GST-retinoblastoma protein construct (Santa Cruz Biotechnology, Santa Cruz, Calif.; Cat. #SC-4112). The form of EGF-R1 (epidermal growth factor receptor 1) used was purified from human A431 cell membranes (Sigma, St. Louis, Mo., Cat.# E3641). […]

[2] = biological target: T2, VEGF-R (rat VEGF-R2 kinase domain) (Rattus norvegicus, UniProt O08775); experiment: VEGF-R Screening Assay; format: biochemical
T2 construct: 6xHis (polyhistidine) (N)
Experimental: A kinase reaction mixture was prepared containing 50 mM Tris-HCl pH=8, 10 mM MgCl2, 0.1 mM Na3PO4, 1 mM DTT, 10 μM ATP, 0.025 μM biotinylated peptide substrate (also referred to herein as PLC-1 biotinylated peptide substrate and PDGF receptor substrate, sequence provided in the peptide substrate table) and 0.8 μCuries per well ^33P-γ-ATP (2000–3000 Ci/mmol). 70 μL of the kinase reaction mixture was dispensed into the well of a streptavidin coated FlashPlate™ (Cat. # SMP103, NEN, Boston, Mass.). Then 1 μL of test compound stock in 100% DMSO was added to the wells resulting in a final concentration of 1% DMSO in the reaction with a 100 μL final reaction volume. Next, soluble rat VEGF tyrosine kinase containing an N-terminal 6XHIS tag was diluted in 50 mM Tris-HCl pH=8.0, 0.1% BSA at a concentration of 5 ng per μL and 30 μL (150 ng enzyme per test well) was added to each well to initiate the reaction. The reaction was incubated for one hour at 30° C. At the end of the 1-hour incubation, the reaction was terminated by aspirating the reaction mixture from the plate and washing the wells twice with PBS containing 100 mM EDTA. The PLC1 biotinylated peptide substrate became immobilized on the Flashplate™ and the incorporation of ^33P-γ-ATP was measured by reading the plate on a scintillation counter. Inhibition of the enzymatic activity of the VEGF-R was measured by observing a reduced amount of ^33P-γ-ATP incorporated into the immobilized peptide.
as §1, §2

T2 sequence (O08775 786-1343): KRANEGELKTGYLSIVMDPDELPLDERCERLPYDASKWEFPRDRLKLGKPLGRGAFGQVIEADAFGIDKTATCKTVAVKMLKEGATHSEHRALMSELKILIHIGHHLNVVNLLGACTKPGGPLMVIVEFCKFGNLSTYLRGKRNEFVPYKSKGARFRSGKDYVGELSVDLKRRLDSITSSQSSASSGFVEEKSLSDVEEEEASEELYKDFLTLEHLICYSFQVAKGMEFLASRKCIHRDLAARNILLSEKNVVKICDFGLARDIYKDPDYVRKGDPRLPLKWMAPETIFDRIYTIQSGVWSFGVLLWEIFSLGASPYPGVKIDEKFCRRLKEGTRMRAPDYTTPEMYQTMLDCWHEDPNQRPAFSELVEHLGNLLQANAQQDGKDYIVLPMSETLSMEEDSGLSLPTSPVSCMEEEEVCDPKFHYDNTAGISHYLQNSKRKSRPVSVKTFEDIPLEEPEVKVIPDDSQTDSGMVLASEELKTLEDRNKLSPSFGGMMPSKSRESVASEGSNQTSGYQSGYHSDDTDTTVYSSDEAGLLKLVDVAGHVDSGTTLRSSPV
T1 sequence (P06493 whole entry): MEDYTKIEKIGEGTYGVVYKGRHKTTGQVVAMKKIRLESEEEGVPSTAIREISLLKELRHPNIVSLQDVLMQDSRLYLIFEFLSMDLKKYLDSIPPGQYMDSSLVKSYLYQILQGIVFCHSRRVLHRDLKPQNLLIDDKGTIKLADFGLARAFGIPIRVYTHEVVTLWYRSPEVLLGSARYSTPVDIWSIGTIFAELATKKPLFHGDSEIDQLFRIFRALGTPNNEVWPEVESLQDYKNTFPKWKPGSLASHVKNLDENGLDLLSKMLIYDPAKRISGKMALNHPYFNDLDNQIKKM
T1 sequence (P14635 whole entry partner): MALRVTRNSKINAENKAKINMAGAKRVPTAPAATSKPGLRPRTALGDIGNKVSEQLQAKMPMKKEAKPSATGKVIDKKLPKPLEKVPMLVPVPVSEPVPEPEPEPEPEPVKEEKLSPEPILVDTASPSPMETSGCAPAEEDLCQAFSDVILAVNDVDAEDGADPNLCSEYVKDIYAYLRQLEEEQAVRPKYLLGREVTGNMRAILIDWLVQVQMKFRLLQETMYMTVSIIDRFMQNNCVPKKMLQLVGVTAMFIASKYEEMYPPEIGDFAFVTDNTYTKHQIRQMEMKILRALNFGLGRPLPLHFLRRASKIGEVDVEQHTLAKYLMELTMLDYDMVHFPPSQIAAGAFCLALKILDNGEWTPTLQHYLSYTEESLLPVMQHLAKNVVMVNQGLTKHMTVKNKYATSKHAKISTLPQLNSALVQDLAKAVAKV

Compound	IC50 [1] [nM]	IC50 [2] [nM]
Nc1nc(Nc2cccc(Cl)c2)nc(-c2ccnc(NCCCO)c2)n1 [Compound 4, 3-((4-(4-amino-6-((3-chlorophenyl)amino)-1,3,5-triazin-2-yl)-2-pyridinyl)amino)-1-propanol]	766	865
OCCCNc1cncc(-c2ncnc(Nc3ccc(N4CCOCC4)cc3)n2)c1 [Compound 6, 3-((5-(4-((4-(4-morpholinyl)phenyl)amino)-1,3,5-triazin-2-yl)-3-pyridinyl)amino)-1-propanol]	1240	5030
OCCCNc1cncc(-c2ncnc(Nc3cccc(Cl)c3)n2)n1 [Compound 3, 3-((6-(4-((3-chlorophenyl)amino)-1,3,5-triazin-2-yl)pyrazin-2-yl)amino)-1-propanol]	971	12900
OCCCNc1cncc(-c2ncnc(Nc3ccc4c(c3)OCCO4)n2)c1 [Compound 5, 3-((5-(4-((2,3-dihydro-1,4-benzodioxin-6-yl)amino)-1,3,5-triazin-2-yl)-3-pyridinyl)amino)-1-propanol]	382	≥ 10000

— US7205298B2, “Substituted triazine kinase inhibitors” (Janssen Pharmaceutica N.V., priority 2002, dated 2007)
